Results taken from patent US20200361895A1, “NOVEL SULFONAMIDE CARBOXAMIDE COMPOUNDS” (Inflazome Limited, priority 2017, published 2020).
Counter-ions that a name gives are not always drawn.

Columns and labels:
[1] = target: T1, NLRP3 (Homo sapiens, UniProt Q96P20); experiment: THP-1 cells pyroptosis assay (LPS + nigericin, resazurin readout; THP IC50); format: cell-based; design: Seed THP-1 cells (25,000 cells/well) containing 1.0 μg/ml LPS in 40 μl of RPMI medium; host or cells: THP-1 cells
Procedure, shortened: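 IC50 from 4-parameter fit of resazurin fluorescence (100 μM, 1-2 hrs), reflecting surviving cells after pyroptosis. LPS-primed (1 μg/ml) THP-1 cells in FBS-free RPMI got compound for 3 hrs at 37° C (top 10 μM, half-log, 8 points), then nigericin 5 μM for 1 hr.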

[2] = target: T1, NLRP3; experiment: Human whole blood IL1β release assay (LPS + nigericin, AlphaLisa IL-1β; HWB IC50); format: cell-based; design: Human whole blood in Li-heparin tubes was obtained from healthy donors from a volunteer donor panel; from tissue; host or cells: human whole blood from healthy donors; conditions: IL-1β release
Procedure, shortened: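 IL-1β in plasma supernatant quantified by AlphaLisa after nigericin (10 μM final, 1 h, 37 °C) triggering of human whole blood that had been preincubated 3 h with LPS (1 μg/ml) plus compound (half-log, 8 points, from 10 μM). IC50 by variable-slope four-parameter regression.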

T1 sequence (Q96P20 whole entry): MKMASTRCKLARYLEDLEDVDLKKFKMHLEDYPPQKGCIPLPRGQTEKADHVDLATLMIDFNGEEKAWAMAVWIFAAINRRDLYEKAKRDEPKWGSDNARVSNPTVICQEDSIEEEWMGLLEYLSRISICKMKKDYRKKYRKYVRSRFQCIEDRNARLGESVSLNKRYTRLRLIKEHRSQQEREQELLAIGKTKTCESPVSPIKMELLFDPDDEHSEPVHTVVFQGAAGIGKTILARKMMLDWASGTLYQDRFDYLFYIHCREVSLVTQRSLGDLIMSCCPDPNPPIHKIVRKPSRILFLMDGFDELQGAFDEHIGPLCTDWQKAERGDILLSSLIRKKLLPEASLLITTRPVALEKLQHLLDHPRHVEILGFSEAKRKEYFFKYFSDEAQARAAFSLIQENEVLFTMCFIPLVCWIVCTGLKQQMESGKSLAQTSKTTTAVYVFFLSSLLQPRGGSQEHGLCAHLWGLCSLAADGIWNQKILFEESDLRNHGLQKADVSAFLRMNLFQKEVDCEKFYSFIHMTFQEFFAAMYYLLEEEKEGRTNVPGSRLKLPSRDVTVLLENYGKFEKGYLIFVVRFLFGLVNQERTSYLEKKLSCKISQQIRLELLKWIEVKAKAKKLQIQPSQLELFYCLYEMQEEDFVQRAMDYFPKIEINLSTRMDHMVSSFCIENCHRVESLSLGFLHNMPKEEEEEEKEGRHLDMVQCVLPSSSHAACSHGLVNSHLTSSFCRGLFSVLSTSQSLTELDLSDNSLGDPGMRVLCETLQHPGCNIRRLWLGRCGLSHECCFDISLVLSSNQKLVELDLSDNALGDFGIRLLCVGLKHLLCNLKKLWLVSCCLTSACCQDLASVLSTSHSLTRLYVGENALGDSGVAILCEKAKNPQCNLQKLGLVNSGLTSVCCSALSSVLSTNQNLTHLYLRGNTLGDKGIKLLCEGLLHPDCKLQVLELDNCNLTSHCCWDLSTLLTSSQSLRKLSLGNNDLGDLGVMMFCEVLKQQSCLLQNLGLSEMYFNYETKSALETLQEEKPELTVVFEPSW

Row | Structure (SMILES) | IC50 [1] [nM] | IC50 [2] [nM]
1 | [2H]C([2H])([2H])Oc1cc(-c2ccc3c(c2NC(=O)NS(=O)(=O)c2ccn(C4CC4)n2)CCO3)ccn1 [Example 278, 1-Cyclopropyl-N-((5-(2-(methoxy-d3)pyridin-4-yl)-2,3-dihydrobenzofuran-4-yl)carbamoyl)-1H-pyrazole-3-sulfonamide, sodium salt] | ≤ 500 | ≤ 500
2 | [2H]C([2H])([2H])Oc1cc(-c2ccc3c(c2NC(=O)NS(=O)(=O)c2ccn(C4CC4)n2)CCC3)ccn1 [Example 279, 1-Cyclopropyl-N-((5-(2-(methoxy-d3)pyridin-4-yl)-2,3-dihydro-1H-inden-4-yl)carbamoyl)-1H-pyrazole-3-sulfonamide, sodium salt] | ≤ 500 | ≤ 500
3 | [2H]C([2H])([2H])Oc1cc(-c2ccc3c(c2NC(=O)NS(=O)(=O)c2ccn(C4CCC4)n2)CCO3)ccn1 [Example 280, 1-Cyclobutyl-N-((5-(2-(methoxy-d3)pyridin-4-yl)-2,3-dihydrobenzofuran-4-yl)carbamoyl)-1H-pyrazole-3-sulfonamide, sodium salt] | ≤ 500 | ≤ 500
4 | COc1cc(-c2ccc3c(c2NC(=O)NS(=O)(=O)c2ccn(C4CCC4)n2)CCO3)c(F)cn1 [Example 281, 1-Cyclobutyl-N-((5-(5-fluoro-2-methoxypyridin-4-yl)-2,3-dihydrobenzofuran-4-yl)carbamoyl)-1H-pyrazole-3-sulfonamide, sodium salt] | ≤ 500 | ≤ 500
5 | COc1cc(-c2ccc3c(c2NC(=O)NS(=O)(=O)c2ccc(C(C)C)c(CN(C)C)c2)CCC3)ccn1 [Example 282, 3-((Dimethylamino)methyl)-4-isopropyl-N-((5-(2-methoxypyridin-4-yl)-2,3-dihydro-1H-inden-4-yl)carbamoyl)benzenesulfonamide, sodium salt] | ≤ 500 | ≤ 500
6 | COc1cc(-c2ccc3c(c2NC(=O)NS(=O)(=O)OC2CCN(C)C2)CCC3)ccn1 (stereo not shown) [Example 284, 1-Methylpyrrolidin-3-yl (5-(2-methoxypyridin-4-yl)-2,3-dihydro-1H-inden-4-yl)carbamoylsulfamate] | ≤ 500 | ≤ 1000
7 | CC(C)n1ccc(S(=O)(=O)NC(=O)Nc2c(-c3ccnc(N)c3)ccc3c2CCC3)n1 [Example 285, N-((5-(2-Aminopyridin-4-yl)-2,3-dihydro-1H-inden-4-yl)carbamoyl)-1-isopropyl-1H-pyrazole-3-sulfonamide] | ≤ 500 | ≤ 5000
8 | CC(C)n1ccc(S(=O)(=O)NC(=O)Nc2c(-c3ccnc(Oc4ccccc4)c3)ccc3c2CCC3)n1 [Example 286, 1-Isopropyl-N-((5-(2-phenoxypyridin-4-yl)-2,3-dihydro-1H-inden-4-yl)carbamoyl)-1H-pyrazole-3-sulfonamide, sodium salt] | ≤ 500 | ≤ 10000
9 | CC(C)n1ccc(S(=O)(=O)NC(=O)Nc2c(-c3ccnc(OC4CCN(C)CC4)c3)ccc3c2CCC3)n1 [Example 287, 1-Isopropyl-N-((5-(2-((1-methylpiperidin-4-yl)oxy)pyridin-4-yl)-2,3-dihydro-1H-inden-4-yl)carbamoyl)-1H-pyrazole-3-sulfonamide, sodium salt] | ≤ 500 | ≤ 500
10 | CC(C)n1ccc(S(=O)(=O)NC(=O)Nc2c(-c3ccnc(OC4CCCOC4)c3)ccc3c2CCC3)n1 (stereo not shown) [Example 288, 1-Isopropyl-N-((5-(2-((tetrahydro-2H-pyran-3-yl)oxy)pyridin-4-yl)-2,3-dihydro-1H-inden-4-yl)carbamoyl)-1H-pyrazole-3-sulfonamide, sodium salt] | ≤ 500 | ≤ 5000
11 | COCC(C)Oc1cc(-c2ccc3c(c2NC(=O)NS(=O)(=O)c2ccn(C(C)C)n2)CCC3)ccn1 (stereo not shown) [Example 289, 1-Isopropyl-N-((5-(2-((1-methoxypropan-2-yl)oxy)pyridin-4-yl)-2,3-dihydro-1H-inden-4-yl)carbamoyl)-1H-pyrazole-3-sulfonamide, sodium salt] | ≤ 500 | ≤ 5000

Continued, values first:

Row | IC50 [1] [nM] | IC50 [2] [nM] | Structure (SMILES)
12 | ≤ 500 | ≤ 5000 | CC(C)n1ncc(S(=O)(=O)NC(=O)Nc2c(-c3ccnc(C#N)c3)ccc3c2CCC3)n1 [Example 260, N-((5-(2-Cyanopyridin-4-yl)-2,3-dihydro-1H-inden-4-yl)carbamoyl)-2-isopropyl-2H-1,2,3-triazole-4-sulfonamide, sodium salt]
13 | ≤ 500 | ≤ 5000 | O=C(Nc1c(-c2ccnc(OC3CC3)c2)ccc2c1CCC2)NS(=O)(=O)c1ccn(C2CC2)n1 [Example 261, N-((5-(2-Cyclopropoxypyridin-4-yl)-2,3-dihydro-1H-inden-4-yl)carbamoyl)-1-cyclopropyl-1H-pyrazole-3-sulfonamide, sodium salt]
14 | ≤ 500 | ≤ 1000 | O=C(Nc1c(-c2ccnc(OC(F)F)c2)ccc2c1CCC2)NS(=O)(=O)c1ccn(C2CC2)n1 [Example 262, 1-Cyclopropyl-N-((5-(2-(difluoromethoxy)pyridin-4-yl)-2,3-dihydro-1H-inden-4-yl)carbamoyl)-1H-pyrazole-3-sulfonamide, sodium salt]
15 | ≤ 500 | ≤ 500 | COc1cc(-c2ccc3c(c2NC(=O)NS(=O)(=O)c2ccn(CC4CC4)n2)CCC3)ccn1 [Example 263, 1-(Cyclopropylmethyl)-N-((5-(2-methoxypyridin-4-yl)-2,3-dihydro-1H-inden-4-yl)carbamoyl)-1H-pyrazole-3-sulfonamide, sodium salt]
16 | ≤ 500 | ≤ 500 | CC(C)(C)n1ccc(S(=O)(=O)NC(=O)Nc2c(-c3ccnc(C#N)c3)ccc3c2CCC3)n1 [Example 264, 1-(tert-Butyl)-N-((5-(2-cyanopyridin-4-yl)-2,3-dihydro-1H-inden-4-yl)carbamoyl)-1H-pyrazole-3-sulfonamide, sodium salt]
17 | ≤ 500 | ≤ 500 | COc1cc(-c2ccc3c(c2NC(=O)NS(=O)(=O)c2ccn(C4CC4)n2)CCO3)c(F)cn1 [Example 265, 1-Cyclopropyl-N-((5-(5-fluoro-2-methoxypyridin-4-yl)-2,3-dihydrobenzofuran-4-yl)carbamoyl)-1H-pyrazole-3-sulfonamide, sodium salt]
18 | ≤ 500 | ≤ 1000 | O=C(Nc1c(-c2ccnc(OC3CC3)c2)ccc2c1CCO2)NS(=O)(=O)c1ccn(C2CCC2)n1 [Example 266, 1-Cyclobutyl-N-((5-(2-cyclopropoxypyridin-4-yl)-2,3-dihydrobenzofuran-4-yl)carbamoyl)-1H-pyrazole-3-sulfonamide, sodium salt]
19 | ≤ 500 | ≤ 500 | COc1cc(-c2ccc3c(c2NC(=O)NS(=O)(=O)c2ccn(CC4CC4)n2)CCO3)ccn1 [Example 267, 1-(Cyclopropylmethyl)-N-((5-(2-methoxypyridin-4-yl)-2,3-dihydrobenzofuran-4-yl)carbamoyl)-1H-pyrazole-3-sulfonamide, sodium salt]
20 | ≤ 500 | ≤ 500 | Cc1cc(-c2ccc3c(c2NC(=O)NS(=O)(=O)c2ccn(C4CCC4)n2)CCC3)ccn1 [Example 269, 1-Cyclobutyl-N-((5-(2-methylpyridin-4-yl)-2,3-dihydro-1H-inden-4-yl)carbamoyl)-1H-pyrazole-3-sulfonamide, sodium salt]
21 | ≤ 500 | ≤ 500 | Cc1cc(-c2ccc3c(c2NC(=O)NS(=O)(=O)c2ccn(C4CC4)n2)CCC3)ccn1 [Example 270, 1-Cyclopropyl-N-((5-(2-methylpyridin-4-yl)-2,3-dihydro-1H-inden-4-yl)carbamoyl)-1H-pyrazole-3-sulfonamide, sodium salt]
22 | ≤ 500 | ≤ 500 | N#Cc1cc(-c2ccc3c(c2NC(=O)NS(=O)(=O)c2ccn(CC4CC4)n2)CCC3)ccn1 [Example 271, N-((5-(2-Cyanopyridin-4-yl)-2,3-dihydro-1H-inden-4-yl)carbamoyl)-1-(cyclopropylmethyl)-1H-pyrazole-3-sulfonamide]
23 | ≤ 500 | ≤ 500 | CC(C)(CN1CCC1)n1ccc(S(=O)(=O)NC(=O)Nc2c(-c3ccnc(OC4CC4)c3)ccc3c2CCC3)n1 [Example 274, 1-(1-(Azetidin-1-yl)-2-methylpropan-2-yl)-N-((5-(2-cyclopropoxypyridin-4-yl)-2,3-dihydro-1H-inden-4-yl)carbamoyl)-1H-pyrazole-3-sulfonamide, sodium salt]
24 | ≤ 500 | ≤ 500 | O=C(Nc1c(-c2ccnc(OC(F)F)c2)ccc2c1CCO2)NS(=O)(=O)c1ccn(C2CCC2)n1 [Example 275, 1-Cyclobutyl-N-((5-(2-(difluoromethoxy)pyridin-4-yl)-2,3-dihydrobenzofuran-4-yl)carbamoyl)-1H-pyrazole-3-sulfonamide, sodium salt]
25 | ≤ 500 | ≤ 1000 | O=C(Nc1c(-c2ccnc(OC3CC3)c2)ccc2c1CCO2)NS(=O)(=O)c1ccn(C2CC2)n1 [Example 276, N-((5-(2-Cyclopropoxypyridin-4-yl)-2,3-dihydrobenzofuran-4-yl)carbamoyl)-1-cyclopropyl-1H-pyrazole-3-sulfonamide, sodium salt]
26 | ≤ 500 | ≤ 500 | O=C(Nc1c(-c2ccnc(OC(F)F)c2)ccc2c1CCO2)NS(=O)(=O)c1ccn(C2CC2)n1 [Example 277, 1-Cyclopropyl-N-((5-(2-(difluoromethoxy)pyridin-4-yl)-2,3-dihydrobenzofuran-4-yl)carbamoyl)-1H-pyrazole-3-sulfonamide, sodium salt]
